The values below come from patent publication US3935229A, “Esters of 2-[(4-quinolyl)amino]-benzoic acids” (Synthelabo, priority 1973, dated 1976).

As usually defined, the LD50 is the dose expected to kill half of the subjects tested.

A short description of one series: in vivo. To be noted: mouse, in vivo, po. How it is done:
(§1) Tests were carried out on mice of both sexes, of the Swiss strain, of average weight 20 g. (± 2g.).

Series [1] deals with carragenine-induced oedema of the paw, Sherman rats. The series is described as follows: Carragenine-induced oedema test (oedema of the paw). In kind it is in vivo. To be noted: Rattus norvegicus; rats, oral administration; read-out: Carragenine-induced oedema test AD (AD40 = 40% active dose).
In series [2] the test system is pain induced, in Swiss mice, by the intraperitoneal injection of phenylquinone. In words: Siegmund test (analgesic effect against pain induced by intraperitoneal phenylquinone). Format: in vivo. To be noted: mice; for ED50: Mus musculus, read-out: Siegmund test AD50 (50% active dose); for analgesic effects of the peripheral type (Siegmund test), compared with amidopyrine and glafenine: oral, versus amidopyrine and glafenine. The source says: 1. Effect against pain induced, in Swiss mice, by the intraperitoneal injection of phenylquinone, in accordance with the experimental procedure of Siegmund (Proc. Soc. Exp. Biol. Med., 1957, 95, 729), modified by Cheymol (C.R. Soc. Biol., 1963, 157, 521) and Brittain (Nature, London, 1963, […], 895).

The subject of series [3] is mice of both sexes, of the Swiss strain. In words: in vivo. To be noted: mice, oral administration. How it is done: as §1
In series [4] the test system is heated plate test, Swiss mice. In words: Heated plate test (plate heated by acetone vapours; analgesic effects of the central type). To be noted: oral, versus amidopyrine.

The compound `Cc1c(N(C)C)c(=O)n(-c2ccccc2)n1C` [Amidopyrine, reference compound] returned a median lethal dose (LD50) in the series “in vivo” (Acute toxicity LD50 (50% lethal dose), mice, oral administration) of 850 mg/kg. In addition, the ED40 in series [1] was 80 mg/kg. Moreover, the ED50 in series [2] (oral administration) was found to be 50 mg/kg.
Compound `O=C(OCCN1CCN(c2ccc(Cl)cc2)CC1)c1ccccc1Nc1ccnc2cc(Cl)ccc12` [Compound 72-165, 2-(4'-p-Chlorophenyl-piperazino)-ethyl 2-(7'-chloro-4' quinolyl-amino)-benzoate] displayed a median lethal dose (LD50) in “in vivo” of over 2000 mg/kg. In addition, the ED50 in series [2] (oral administration) is 50 mg/kg.
In the series “in vivo”, `O=C(OCCN1CCN(c2ccccc2)CC1)c1ccccc1Nc1ccnc2cc(C(F)(F)F)ccc12` [Compound 72-242, 2-(4'-Phenyl-piperazino)-ethyl 2-(7'-trifluoro-methyl-4'quinolyl-amino)-benzoate] displayed a 50% lethal dose (LD50) of over 3000 mg/kg. Moreover, the ED40 in series [1] worked out at 40 mg/kg. The ED50 in series [2] (oral administration) is 25 mg/kg. The “analgesic effects of the peripheral type (Siegmund test), compared with amidopyrine and glafenine” value in series [2] is listed as “generally much more active”.
Consider `O=C(OCCN1CCN(c2ccccc2)CC1)c1ccccc1Nc1ccnc2cc(SC(F)(F)F)ccc12` [Compound 72-244, 2-(4'-Phenyl-piperazino)-ethyl 2-(7'-trifluoromethylthio-4'-quinolyl-amino)-benzoate], for which, in series [3], the “Acute toxicity LD50 (50% lethal dose)” value is listed as 1,200 mg/kg. The ED50 in series [2] (oral administration) was 10 mg/kg. In series [2], the “analgesic effects of the peripheral type (Siegmund test), compared with amidopyrine and glafenine” value was “generally much more active”.
`Cc1cccc(N2CCN(CCOC(=O)c3ccccc3Nc3ccnc4cc(Cl)ccc34)CC2)c1C` [Compound 72-248, 2-[4'-(2",3"-Dimethyl-phenyl)-piperazino]-ethyl 2-(7'-chloro-4'-quinolyl-amino)-benzoate] yielded a 50% lethal dose (LD50) in “in vivo” of 1900 mg/kg. Also, in series [1], the ED40 is 120 mg/kg. In addition, in series [2] (oral administration), the ED50 was 20 mg/kg. In addition, the “analgesic effects of the peripheral type (Siegmund test), compared with amidopyrine and glafenine” value in series [2] is listed as “generally much more active”.
As to `O=C(OCCN1CCN(c2cccc(Cl)c2)CC1)c1ccccc1Nc1ccnc2cc(Cl)ccc12` [Compound 73-018, 2-(4'-m-Chlorophenyl-piperazino)-ethyl 2-(7'-chloro-4'-quinolyl-amino)-benzoate], the 50% lethal dose (LD50) in “in vivo” was 4000 mg/kg. In series [4], the “analgesic effects of the central type (heated plate test), compared with amidopyrine” value is listed as “greater than that of amidopyrine” and the “extent of the greater activity than amidopyrine in the heated plate test” value is “considerable”. Besides, the ED40 in series [1] amounted to 120 mg/kg. In addition, the ED50 in series [2] (oral administration) turned out to be 6 mg/kg. For the same compound, the “analgesic effects of the peripheral type (Siegmund test), compared with amidopyrine and glafenine” value in series [2] was “generally much more active”.
In turn, `O=C(OCCN1CCN(c2cccc(OC(F)(F)F)c2)CC1)c1ccccc1Nc1ccnc2cc(Cl)ccc12` [Compound 73-030, 2-(4'-m-Trifluoromethoxyphenyl-piperazino)-ethyl 2-(7'-chloro-4'-quinolyl-amino)-benzoate] showed an LD50 in the series “in vivo” of over 4000 mg/kg. The ED40 in series [1] turned out to be 50 mg/kg. Besides, the ED50 in series [2] (oral administration) turned out to be 100 mg/kg.
On the same counts, the results for `O=C(OCCN1CCN(c2cccc(SC(F)(F)F)c2)CC1)c1ccccc1Nc1ccnc2cc(Cl)ccc12` [Compound 73-031, 2-(4'-m-Trifluoromethylthiophenyl-piperazino)-ethyl 2-(7'-chloro-4'-quinolyl-amino)-benzoate] are 3000 mg/kg, 30 mg/kg and 100 mg/kg.
On to `O=C(OCCN1CCN(c2cccc(C(F)(F)F)c2)CC1)c1ccccc1Nc1ccnc2cc(C(F)(F)F)ccc12` [Compound 73-033, 2-(4'-m-Trifluoromethylphenyl-piperazino)-ethyl 2-(7'-trifluoromethyl-4'-quinolyl-amino)-benzoate], for which the “Acute toxicity LD50 (50% lethal dose)” value in series [3] was 4,000 mg/kg. For the same compound, in series [2] (oral administration), the “Siegmund test AD50 (50% active dose)” value is 5 mg/kg.
The compound `O=C(OCCN1CCN(c2cccc(Cl)c2)CC1)c1ccccc1Nc1ccnc2cc(C(F)(F)F)ccc12` [Compound 73-045, 2-(4'-m-Chlorophenyl-piperazino)-ethyl 2-(7'-trifluromethyl-4'-quinolyl-amino)-benzoate] yielded an LD50 in the series “in vivo” of over 4000 mg/kg. The “analgesic effects of the central type (heated plate test), compared with amidopyrine” value in series [4] is given as “greater than that of amidopyrine”. For the same compound, the ED40 in series [1] amounted to 30 mg/kg. Besides, the ED50 in series [2] (oral administration) came to 8 mg/kg. For the same compound, the “analgesic effects of the peripheral type (Siegmund test), compared with amidopyrine and glafenine” value in series [2] is listed as “generally much more active”.
In the series “in vivo”, `Cc1c(Cl)cccc1N1CCN(CCOC(=O)c2ccccc2Nc2ccnc3cc(Cl)ccc23)CC1` [Compound 73-046, 2-[4'-(3"-Chloro-2"-methyl-phenyl)-piperazino]-ethyl 2-(7'-chloro-4'-quinolyl-amino)-benzoate] returned an LD50 of over 2000 mg/kg. Besides, the ED40 in series [1] was 30 mg/kg. For the same compound, the ED50 in series [2] (oral administration) was 13 mg/kg. Further, the “analgesic effects of the peripheral type (Siegmund test), compared with amidopyrine and glafenine” value in series [2] was “generally much more active”.
On the same counts, the results for `Cc1c(Cl)cccc1N1CCN(CCOC(=O)c2ccccc2Nc2ccnc3cc(C(F)(F)F)ccc23)CC1` [Compound 73-047, 2-[4'-(3"-Chloro-2"-methyl-phenyl)-piperazino]-ethyl 2-(7'-trifluoromethyl-4'-quinolyl-amino)-benzoate] are 3000 mg/kg, 65 mg/kg, 16 mg/kg and “generally much more active”.
The like results for `O=C(OCCN1CCN(c2cccc(SC(F)(F)F)c2)CC1)c1ccccc1Nc1ccnc2cc(C(F)(F)F)ccc12` [Compound 73-048, 2-(4'-m-Trifluoromethylthiophenyl-piperazino)-ethyl 2-(7'-trifluoromethyl-4'-quinolyl-amino)-benzoate] were, in that order, 4000 mg/kg, 30 mg/kg, 6 mg/kg and “generally much more active”.
In the case of `O=C(OCCN1CCN(c2cccc(OC(F)(F)F)c2)CC1)c1ccccc1Nc1ccnc2cc(C(F)(F)F)ccc12` [Compound 73-051, 2-(4'-m-trifluoromethoxyphenyl-piperazino)-ethyl 2-(7'-trifluoromethyl-4'-quinolyl-amino)-benzoate], the median lethal dose (LD50) in the series “in vivo” was over 4000 mg/kg. Moreover, in series [1], the ED40 was found to be 50 mg/kg. In addition, in series [2] (oral administration), the ED50 turned out to be 16 mg/kg. Besides, the “analgesic effects of the peripheral type (Siegmund test), compared with amidopyrine and glafenine” value in series [2] is given as “generally much more active”.
On to `O=C(OCCN1CCN(c2cccc(SC(F)(F)F)c2)CC1)c1ccccc1Nc1ccnc2cc(SC(F)(F)F)ccc12` [Compound 73-069, 2-(4'-m-Trifluoromethylthiophenyl-piperazino)-ethyl 2-(7'-trifluoromethylthio-4'-quinolyl-amino)-benzoate], for which, in series [3], the “Acute toxicity LD50 (50% lethal dose)” value is on record as 2,200 mg/kg. For the same compound, in series [1], the ED40 worked out at 55 mg/kg. In series [2] (oral administration), the ED50 came out at 50 mg/kg.
`O=C(OCCN1CCN(c2cc(C(F)(F)F)cc(C(F)(F)F)c2)CC1)c1ccccc1Nc1ccnc2cc(C(F)(F)F)ccc12` [Compound 73-070, 2-[4'-(3",5"-Di-trifluoromethyl-phenyl)-piperazino]-ethyl 2-(7'-trifluoromethyl-4'-quinolyl-amino)-benzoate]: the median lethal dose (LD50) in the series “in vivo” was over 4000 mg/kg. Moreover, the ED40 in series [1] was over 80 mg/kg. In addition, the ED50 in series [2] (oral administration) is 16 mg/kg.
With `CCCCC1C(=O)N(c2ccccc2)N(c2ccccc2)C1=O` [Phenylbutazone, reference compound], in series [1], the ED40 was determined as 30 mg/kg. For the same compound, the ED50 in series [2] (oral administration) worked out at 90 mg/kg.
In the series “in vivo”, `O=C(OCCN1CCN(c2cccc(C(F)(F)F)c2)CC1)c1ccccc1Nc1ccnc2c(C(F)(F)F)cccc12` [SLB 179, 2-(4'-m-Trifluoromethylphenyl-piperazino)-ethyl 2-(8'-trifluoromethyl-4'-quinolyl-amino)-benzoate] yielded a median lethal dose (LD50) of over 3000 mg/kg. The “analgesic effects of the central type (heated plate test), compared with amidopyrine” value in series [4] is on record as “greater than that of amidopyrine”. Also, the ED40 in series [1] stood at 120 mg/kg. For the same compound, the ED50 in series [2] (oral administration) is 25 mg/kg. In series [2], the “analgesic effects of the peripheral type (Siegmund test), compared with amidopyrine and glafenine” value is reported as “generally much more active”.
`O=C(OCCN1CCN(c2cccc(Cl)c2)CC1)c1ccccc1Nc1ccnc2c(C(F)(F)F)cccc12` [SLB 180, 2-(4'-m-Chlorophenyl-piperazino)-ethyl 2-(8'-trifluoromethyl-4'-quinolyl-amino)-benzoate] came in with an LD50 in the series “in vivo” of over 3000 mg/kg. In series [1], the ED40 was over 100 mg/kg. In series [2] (oral administration), the ED50 came to 12 mg/kg. The “analgesic effects of the peripheral type (Siegmund test), compared with amidopyrine and glafenine” value in series [2] is listed as “generally much more active”.
On to `O=C(OCCN1CCN(c2ccccc2)CC1)c1ccccc1Nc1ccnc2c(C(F)(F)F)cccc12` [SLB 181, 2-(4'-Phenyl-piperazino)-ethyl 2-(8'-trifluoromethyl-4'-quinolyl-amino)-benzoate], for which the median lethal dose (LD50) in “in vivo” stood at 2000 mg/kg. Besides, in series [1], the ED40 was found to be 45 mg/kg. Also, in series [2] (oral administration), the ED50 came to 12 mg/kg. Besides, in series [2], the “analgesic effects of the peripheral type (Siegmund test), compared with amidopyrine and glafenine” value is listed as “generally much more active”.
In the series “in vivo”, `O=C(OCCN1CCN(c2cccc(SC(F)(F)F)c2)CC1)c1ccccc1Nc1ccnc2c(C(F)(F)F)cccc12` [SLB 182, 2-(4'-m-Trifluoromethylthiophenyl-piperazino)-ethyl 2-(8'-trifluoromethyl-4'-quinolyl-amino)-benzoate] returned an LD50 of over 3000 mg/kg. Further, in series [1], the ED40 was 150 mg/kg. Also, the ED50 in series [2] (oral administration) came out at 5 mg/kg. Further, the “analgesic effects of the peripheral type (Siegmund test), compared with amidopyrine and glafenine” value in series [2] is reported as “generally much more active”.
